Laboratory results published in PubChem BioAssay AID330 (DTP/NCI, 2004).
“And” between values parts separate entries of the source, which are not always exact repeats. Equal entries are not always repeated. Toxic doses and inconclusive results are not listed. The calls were made as follows: active = survival T/C of 150% or more; inactive = T/C below 125% in these data.

Test system: P388 leukemia ip, CD2F1 mice, survival T/C
Test: NCI In Vivo Anticancer Drug Screen. Data for tumor model P388 Leukemia (intraperitoneal) in CD2F1 (CDF1) mice
Settings: endpoint: median survival time, higher = longer survival
Summary of the method: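 Mice carrying the transplanted tumor received test compound or vehicle. Survival was recorded in each group, and the value is the treated-group measurement divided by that of the vehicle-treated control group.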

[1] = dose: 50.0 mg/kg/injection, schedule: Q01DX005 (ip), vehicle: saline with Tween-80
[2] = dose: 100.0 mg/kg/injection, schedule: Q01DX005 (ip), vehicle: saline with Tween-80
[3] = dose: 200.0 mg/kg/injection, schedule: Q01DX005 (ip), vehicle: saline with Tween-80
[4] = dose: 60.0 mg/kg/injection, schedule: Q01DX005 (ip), vehicle: saline with Tween-80
[5] = dose: 120.0 mg/kg/injection, schedule: Q01DX005 (ip), vehicle: saline with Tween-80
[6] = dose: 240.0 mg/kg/injection, schedule: Q01DX005 (ip), vehicle: saline with Tween-80
[7] = dose: 12.5 mg/kg/injection, schedule: Q01DX009 (ip), vehicle: Klucel (hydroxypropylcellulose) (HPC)
[8] = dose: 25.0 mg/kg/injection, schedule: Q01DX009 (ip), vehicle: Klucel (hydroxypropylcellulose) (HPC)
[9] = dose: 50.0 mg/kg/injection, schedule: Q01DX009 (ip), vehicle: Klucel (hydroxypropylcellulose) (HPC)
[10] = dose: 50.0 mg/kg/injection, schedule: Q01DX009 (ip), vehicle: saline with Tween-80
[11] = dose: 100.0 mg/kg/injection, schedule: Q01DX009 (ip), vehicle: saline with Tween-80
[12] = dose: 200.0 mg/kg/injection, schedule: Q01DX009 (ip), vehicle: saline with Tween-80

Measured: T/C

O=C1C=C(NCCc2cc3c(cc2Br)OCO3)CCC1
inactive: dose: 100.0 mg/kg/injection, schedule: Q04DX002 (ip), vehicle: saline with Tween-80 97 % of control | dose: 200.0 mg/kg/injection, schedule: Q04DX002 (ip), vehicle: saline with Tween-80 91 % of control | dose: 400.0 mg/kg/injection, schedule: Q04DX002 (ip), vehicle: saline with Tween-80 95 % of control

COC(=O)c1c(C(=O)Nc2ccccc2)c(-c2ccccc2)n(NC(N)=O)c1C
inactive: [1] 112 % of control | [2] 107 % of control | [3] 104 % of control

O=C(Cc1nc2ccc([N+](=O)[O-])cc2nc1CC(=O)c1cccnc1)c1cccnc1
inactive: [4] 97 % of control | [5] 92 % of control | [6] 90 % of control

CCN(CC)C(=O)S(=O)(=O)c1ccccc1
inactive: [7] 106 % of control | [8] 101 % of control and 98 % of control | [9] 120 % of control | dose: 100.0 mg/kg/injection, schedule: Q01DX009 (ip), vehicle: Klucel (hydroxypropylcellulose) (HPC) 111 % of control | dose: 200.0 mg/kg/injection, schedule: Q01DX009 (ip), vehicle: Klucel (hydroxypropylcellulose) (HPC) 110 % of control

CC(Br)C(=O)c1ccc(OCc2ccccc2)cc1 (configuration not stated)
inactive: [10] 110 % of control | [11] 124 % of control | [12] 121 % of control

CCCCCCCCCCCC(=O)NC1CCS(=O)(=O)C1 (configuration not stated)
inactive: dose: 37.5 mg/kg/injection, schedule: Q01DX009 (ip), vehicle: Klucel (hydroxypropylcellulose) (HPC) 99 % of control | dose: 75.0 mg/kg/injection, schedule: Q01DX009 (ip), vehicle: Klucel (hydroxypropylcellulose) (HPC) 96 % of control | dose: 150.0 mg/kg/injection, schedule: Q01DX009 (ip), vehicle: Klucel (hydroxypropylcellulose) (HPC) 97 % of control | dose: 300.0 mg/kg/injection, schedule: Q01DX009 (ip), vehicle: Klucel (hydroxypropylcellulose) (HPC) 95 % of control

COc1cccc2c1C(=O)C1=C(C2=O)c2c(O)cc(CO)cc2C(O)C1O (configuration not stated)
inactive: dose: 6.25 mg/kg/injection, schedule: Q01DX005 (ip), vehicle: saline + Tween-80 + alcohol 113 % of control | dose: 12.5 mg/kg/injection, schedule: Q01DX005 (ip), vehicle: saline + Tween-80 + alcohol 113 % of control | dose: 25.0 mg/kg/injection, schedule: Q01DX005 (ip), vehicle: saline + Tween-80 + alcohol 120 % of control

[N-]=[N+]=NC1(c2ccccc2)C(=O)c2ccccc2C1=O
inactive: dose: 100.0 mg/kg/injection, schedule: Q04DX003 (ip), vehicle: saline with Tween-80 94 % of control | dose: 200.0 mg/kg/injection, schedule: Q04DX003 (ip), vehicle: saline with Tween-80 105 % of control

COC1=C(Br)C(=O)N/C1=C(\OC)c1ccccc1
inactive: [4] 89 % of control | [5] 98 % of control | [6] 89 % of control

COC(CN1C(=O)CSC1=S)OC
inactive: [10] 114 % of control | [11] 117 % of control | [12] 117 % of control

O=C(N/N=C/c1ccco1)c1ccc(OCc2nc3ccccc3[nH]2)cc1
inactive: dose: 25.0 mg/kg/injection, schedule: Q01DX005 (ip), vehicle: saline with Tween-80 97 % of control | [1] 94 % of control | [2] 87 % of control | [3] 94 % of control

C=C(C)C1(O)c2c(Cl)cccc2C(c2ccccc2)c2cccc(Cl)c21 (configuration not stated)
inactive: dose: 100.0 mg/kg/injection, schedule: Q01DX001 (ip), vehicle: saline with Tween-80 110 % of control | dose: 200.0 mg/kg/injection, schedule: Q01DX001 (ip), vehicle: saline with Tween-80 107 % of control | dose: 400.0 mg/kg/injection, schedule: Q01DX001 (ip), vehicle: saline with Tween-80 100 % of control

O=[N+]([O-])c1ccc([O-])c([I+]c2ccccc2)c1
inactive: [7] 94 % of control | [8] 96 % of control | [9] 89 % of control and 94 % of control
